Assay results reported in patent US11109593B2, “Isoxazolin-5-one derivative and herbicide containing same as active ingredient” (HOKKO CHEMICAL INDUSTRY CO., LTD., priority 2017, dated 2021).

Tests used:
Type in all cases: in vivo
[1] = system: Echinochloa crus-galli; assay: Test Example 1: herbicidal effect test by treatment of rice paddy soil (immediately after seeding); settings: 120 g/10a active ingredient, dry weight vs untreated area, 14 days after treatment
In short: (§1)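 Application occurs immediately after seeding, with diluted emulsion added to paddy water (about 3 cm deep) over puddled, fertilized soil at 120 g active ingredient per 10 ares. Herbicidal rate is calculated from mean dry weight against untreated controls 14 days later.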

[2] = system: Scirpus juncoides; assay: as above; settings: 120 g/10a active ingredient, dry weight vs untreated area, 14 days after treatment
In short: as §1

[3] = system: broad leaf weeds (Lindernia pyxidaria and Monochoria vaginalis); assay: as above; settings: 120 g/10a active ingredient, dry weight vs untreated area, 14 days after treatment
In short: as §1

[4] = system: Echinochloa crus-galli; assay: Test Example 2: herbicidal effect test by treatment during growing period in paddy rice cultivation (seven days after seeding); settings: 120 g/10a active ingredient, assessed 14 days after treatment, dry weight vs untreated area
In short: (§2)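 Emulsion formulations, diluted in water, applied dropwise to flooded pots (about 3 cm water) 7 days post-seeding at 120 g a.i./10 ares. Weeds sown 30 seeds each, 0–1 cm deep in puddled paddy soil; greenhouse. Readout: % reduction in plant dry weight vs untreated, day 14, duplicates.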

[5] = system: Scirpus juncoides; assay: as above; settings: 120 g/10a active ingredient, assessed 14 days after treatment, dry weight vs untreated area
In short: as §2

[6] = system: broad leaf weeds (Lindernia pyxidaria and Monochoria vaginalis); assay: as above; settings: 120 g/10a active ingredient, assessed 14 days after treatment, dry weight vs untreated area
In short: as §2

[7] = system: Amaranthus viridis; assay: Test Example 3: herbicidal effect test by treatment of dry field farming soil (one day after seeding); settings: 120 g/10a active ingredient, evaluated 14 days after treatment
In short: (§3)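 Herbicidal rate (%) = {1 − treated/untreated mean plant dry weight} × 100, scored 14 days after spraying, duplicate pots per concentration. Emulsified compound was water-diluted and applied to soil surface one day post-seeding at 120 g a.i. per 10 ares.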

[8] = system: Chenopodium album; assay: as above; settings: 120 g/10a active ingredient, evaluated 14 days after treatment
In short: as §3

[9] = system: Echinochloa crus-galli; assay: as above; settings: 120 g/10a active ingredient, evaluated 14 days after treatment
In short: as §3

[10] = system: southern crabgrass; assay: as above; settings: 120 g/10a active ingredient, evaluated 14 days after treatment
In short: as §3

[11] = system: Amaranthus viridis; assay: Test Example 4: herbicidal effect test by treatment of leave and stem in dry field farming (seven days after seeding); settings: 120 g/10a active ingredient; emulsion sprayed seven days after seeding; evaluated 14 days after treatment
In short: (§4)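 Twenty seeds per species were mixed into the top 1 cm of alluvial soil in 36 cm^2 pots; emulsions were sprayed seven days after seeding at 100 L per 10 ares (120 g active ingredient per 10 ares). Herbicidal rate (%) = {1 − treated/untreated mean dry weight} × 100, 14 days after treatment, duplicate.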

[12] = system: Chenopodium album; assay: as above; settings: 120 g/10a active ingredient; emulsion sprayed seven days after seeding; evaluated 14 days after treatment
In short: as §4

[13] = system: Echinochloa crus-galli; assay: as above; settings: 120 g/10a active ingredient; emulsion sprayed seven days after seeding; evaluated 14 days after treatment
In short: as §4

[14] = system: southern crabgrass; assay: as above; settings: 120 g/10a active ingredient; emulsion sprayed seven days after seeding; evaluated 14 days after treatment
In short: as §4

SMILES	Herbicidal rate (%) Echinochloa crus-galli [1]	Herbicidal rate (%) Scirpus juncoides [2]	Herbicidal rate (%) Lindernia pyxidaria [3]	Herbicidal rate (%) Monochoria vaginalis [3]	Herbicidal rate (%) Echinochloa crus-galli [4]	Herbicidal rate (%) Scirpus juncoides [5]	Herbicidal rate (%) Lindernia pyxidaria [6]	Herbicidal rate (%) Monochoria vaginalis [6]	herbicidal rate, Amaranthus viridis [7]	herbicidal rate, Chenopodium album [8]	herbicidal rate, Echinochloa crus-galli [9]	herbicidal rate, southern crabgrass [10]	herbicidal effect (herbicidal rate), Amaranthus viridis [11]	herbicidal effect (herbicidal rate), Chenopodium album [12]	herbicidal effect (herbicidal rate), Echinochloa crus-galli [13]	herbicidal effect (herbicidal rate), southern crabgrass [14]
Cc1c(Cc2ccccc2NS(=O)(=O)C(F)(F)F)c(=O)on1CC1(C)CC1 [Compound 1-145]	100%	100%	100%	100%	90%	80%	60%	80%	40%	40%	90%	80%	0%	40%	90%	50%
Cc1c(Cc2ccccc2NS(=O)(=O)C(F)(F)F)c(=O)on1CC1CCCCC1 [Compound 1-146]	100%	100%	100%	100%	100%	90%	70%	90%	90%	90%	100%	100%	50%	40%	80%	40%
COCCn1oc(=O)c(Cc2ccccc2NS(=O)(=O)C(F)(F)F)c1C [Compound 1-148]	90%	100%	100%	90%	90%	90%	60%	80%	80%	80%	100%	100%	40%	40%	90%	80%
Cc1c(Cc2ccccc2NS(=O)(=O)C(F)(F)F)c(=O)on1Cc1ccccc1 [Compound 1-180]	90%	90%	90%	90%	70%	90%	80%	90%	30%	30%	80%	80%	0%	40%	50%	50%
Cc1c(Cc2ccccc2NS(=O)(=O)C(F)(F)F)c(=O)on1Cc1ccc(F)cc1 [Compound 1-183]	100%	100%	100%	100%	80%	100%	100%	100%	50%	60%	90%	90%	40%	50%	90%	50%
Cc1ccc(C(C)n2oc(=O)c(Cc3ccccc3NS(=O)(=O)C(F)(F)F)c2C)cc1 (stereo not drawn) [Compound 1-208]	90%	90%	80%	90%	90%	80%	60%	90%	40%	40%	100%	50%	40%	40%	90%	0%
CCC(c1ccccc1)n1oc(=O)c(Cc2ccccc2NS(=O)(=O)C(F)(F)F)c1C (stereo not drawn) [Compound 1-211]	90%	90%	90%	90%	90%	90%	60%	80%	0%	0%	90%	90%	40%	50%	90%	60%
CCCC(c1ccccc1)n1oc(=O)c(Cc2ccccc2NS(=O)(=O)C(F)(F)F)c1C (stereo not drawn) [Compound 1-212]	90%	90%	90%	80%	90%	90%	70%	90%	0%	0%	90%	90%	80%	60%	90%	90%
Cc1c(Cc2ccccc2NS(=O)(=O)C(F)(F)F)c(=O)on1C(c1ccccc1)C(C)C (stereo not drawn) [Compound 1-213]	100%	90%	90%	90%	90%	80%	70%	80%	100%	100%	100%	100%	40%	50%	90%	90%
